Measured values published in patent US20250163057A1, “DCN-1 MODULATING COMPOUNDS AND METHODS OF USE THEREOF” (Cellarity, Inc., priority 2023, published 2025).
Read-outs that look alike come from different tables or passages of the source.

Columns and labels:
[1] = system: Cullin-3 (CUL3) neddylation; assay: AlphaLISA assay for Cullin-3 (CUL3) neddylation in TF 1 cells; type: cell-based; conditions: Homo sapiens, TF-1, 3 h, 3 hours treatment
How it was run: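 TF 1 cells in unsupplemented IMDM treated with compound concentrations for 3 h, then lysed. CUL3 neddylation detected by AlphaLISA (biotinylated anti-NEDD8, anti-CUL3 acceptor beads overnight, streptavidin donor beads 1 h); normalized to vehicle (0%) and 1 μM DI-1548 (100%), IC50 from Hill fits.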

DCN1 protein = DCN1 protein (Homo sapiens (Human), UniProt Q96GG9); assay: Intact Protein MS Analysis with the RapidFire-TOF System (covalent adduct formation); type: binding; conditions: MS Emax; 400 nM DCN1, 3 hours at room temperature
How it was run: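 Tag-cleaved human DCN1 (400 nM) expressed in E. coli, in 25 mM Tris-HCl, 200 mM NaCl, 1 mM DTT, was incubated with 11 compound concentrations for 3 h at room temperature and quenched with 0.2% formic acid. Intact-protein Q-TOF MS with deconvolution detected the compound adduct mass.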

[2] = target: DCN1 (DCUND1) protein PONY domain (Homo sapiens (Human), UniProt Q96GG9); assay: TR-FRET assay, DCN1 binding with FAM-labeled probe
How it was run: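 Tb-DCN1 PONY domain (E. coli, biotin/streptavidin-Tb); FAM-labelled non-covalent inhibitor probe; TritonX buffer, 200 mM NaCl; 5 nM DCN1 + 20 nM probe or 0.31 nM DCN1 + 900 nM total probe; 0.1% DMSO; TR-FRET read 1, 5, 24 hrs.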

[3] = 24 hr after treatment with compound, read-out: TR FRET IC50 24 hr
[4] = read-out: TR FRET IC50 1 hr, 1 hr after treatment with compound
[5] = TR FRET IC50 1 hr (nM), 1 hr after treatment with compound

DCN1 protein, sequence (Q96GG9 whole entry): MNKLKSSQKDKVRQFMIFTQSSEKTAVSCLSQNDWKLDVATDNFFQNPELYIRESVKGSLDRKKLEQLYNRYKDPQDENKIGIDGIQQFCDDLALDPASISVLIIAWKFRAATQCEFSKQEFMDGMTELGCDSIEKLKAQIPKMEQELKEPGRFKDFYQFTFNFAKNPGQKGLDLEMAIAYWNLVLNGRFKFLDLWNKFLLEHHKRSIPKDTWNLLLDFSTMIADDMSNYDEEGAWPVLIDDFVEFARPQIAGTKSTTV
DCN1 (DCUND1) protein PONY domain, sequence (Q96GG9 60-248): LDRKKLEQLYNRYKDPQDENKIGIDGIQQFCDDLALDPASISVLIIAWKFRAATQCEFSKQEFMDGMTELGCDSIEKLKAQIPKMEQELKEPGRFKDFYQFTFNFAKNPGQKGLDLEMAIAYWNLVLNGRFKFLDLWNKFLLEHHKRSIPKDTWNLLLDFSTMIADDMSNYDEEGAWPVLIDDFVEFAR

CCCn1nc(C(=O)N2[C@H](C#N)C[C@H]3C[C@H]32)c2c1N(CC)C(=O)[C@@H](NC(=O)c1cccc(C(F)(F)F)c1)[C@H]2c1ccc(F)cc1 [Compound I-331]
IC50 [1]: ≤ 100 nM | % Adduct Formation (DCN1 protein): +++ (MS Emax % adduct formation greater than 80.0 and less than or equal to 100.0) | IC50 [2, 3]: ≤ 200 nM | IC50 [2, 4]: ≤ 200 nM

CCN1C(=O)[C@@H](NC(=O)c2cccc(C(F)(F)F)n2)[C@@H](c2ccc(F)cc2)c2c(C(=O)N3CCC[C@H]3C#N)nn(C3CCOCC3)c21 [Compound I-332]
IC50 [1]: ≤ 100 nM | % Adduct Formation (DCN1 protein): +++ (MS Emax % adduct formation greater than 80.0 and less than or equal to 100.0) | IC50 [2, 3]: ≤ 200 nM | IC50 [2, 5]: 200 to 1000 nM

CCN1C(=O)[C@@H](NC(=O)c2cccc(C(F)(F)F)c2F)[C@@H](c2ccc(F)cc2)c2c(C(=O)N3CCC[C@H]3C#N)nn(C3CCOCC3)c21 [Compound I-333]
IC50 [1]: ≤ 100 nM | % Adduct Formation (DCN1 protein): +++ (MS Emax % adduct formation greater than 80.0 and less than or equal to 100.0) | IC50 [2, 3]: ≤ 200 nM | IC50 [2, 5]: 200 to 1000 nM

CCN1C(=O)[C@@H](NC(=O)c2cccc(C(F)(F)F)c2)[C@@H](c2ccc(F)cc2)c2c(C(=O)N3CCC[C@H]3C#N)nn(-c3cccc(OCCCN(C)C4COC4)c3)c21 [Compound I-335]
IC50 [1]: ≤ 100 nM | % Adduct Formation (DCN1 protein): +++ (MS Emax % adduct formation greater than 80.0 and less than or equal to 100.0) | IC50 [2, 3]: ≤ 200 nM | IC50 [2, 5]: 1000 to 3000 nM

CCN1C(=O)[C@@H](NC(=O)c2cccc(C(F)(F)F)c2)[C@@H](c2ccc(F)cc2)c2c(C(=O)N3CCC[C@H]3C#N)nn(-c3cccc(OCCCN4CCC5(CC4)COC5)c3)c21 [Compound I-336]
IC50 [1]: ≤ 100 nM | % Adduct Formation (DCN1 protein): +++ (MS Emax % adduct formation greater than 80.0 and less than or equal to 100.0) | IC50 [2, 3]: ≤ 200 nM | IC50 [2, 4]: ≤ 200 nM

CCN1C(=O)[C@@H](NC(=O)c2cccc(C(F)(F)F)c2)[C@@H](c2ccc(F)cc2)c2c(C(=O)N3CCC[C@H]3C#N)nn(-c3cccc(OCCCN4CCN(C5COC5)CC4)c3)c21 [Compound I-337]
IC50 [1]: ≤ 100 nM | % Adduct Formation (DCN1 protein): +++ (MS Emax % adduct formation greater than 80.0 and less than or equal to 100.0) | IC50 [2, 3]: ≤ 200 nM | IC50 [2, 4]: ≤ 200 nM

CCN1C(=O)[C@@H](NC(=O)c2cccc(C(F)(F)F)c2)[C@@H](c2ccc(F)cc2)c2c(C(=O)N3CCC[C@H]3C#N)nn(-c3cccc(OCCCN4CCOCC4)c3)c21 [Compound I-338]
IC50 [1]: ≤ 100 nM | % Adduct Formation (DCN1 protein): +++ (MS Emax % adduct formation greater than 80.0 and less than or equal to 100.0) | IC50 [2, 3]: ≤ 200 nM | IC50 [2, 5]: 1000 to 3000 nM

CCN1C(=O)[C@@H](NC(=O)c2cccc(C(F)(F)F)c2)[C@@H](c2ccc(F)cc2)c2c(C(=O)N3CCC[C@H]3C#N)nn(-c3cccc(OCCN4CCOCC4)c3)c21 [Compound I-339]
IC50 [1]: ≤ 100 nM | % Adduct Formation (DCN1 protein): +++ (MS Emax % adduct formation greater than 80.0 and less than or equal to 100.0) | IC50 [2, 3]: ≤ 200 nM | IC50 [2, 5]: 1000 to 3000 nM

CCN1C(=O)[C@@H](NC(=O)c2cccc(C(F)(F)F)c2)[C@@H](c2ccc(F)cc2)c2c(C(=O)N3CCC[C@H]3C#N)nn(-c3cccc(OCCN4CCN(C5COC5)CC4)c3)c21 [Compound I-340]
IC50 [1]: ≤ 100 nM | % Adduct Formation (DCN1 protein): +++ (MS Emax % adduct formation greater than 80.0 and less than or equal to 100.0) | IC50 [2, 3]: ≤ 200 nM | IC50 [2, 4]: ≤ 200 nM

CCN1C(=O)[C@@H](NC(=O)c2cccc(C(F)(F)F)c2)[C@@H](c2ccc(F)cc2)c2c(C(=O)N3CCC[C@H]3C#N)nn(-c3cccc(OCCN4CCC5(CC4)COC5)c3)c21 [Compound I-341]
IC50 [1]: ≤ 100 nM | % Adduct Formation (DCN1 protein): +++ (MS Emax % adduct formation greater than 80.0 and less than or equal to 100.0) | IC50 [2, 3]: ≤ 200 nM | IC50 [2, 4]: ≤ 200 nM

CCN1C(=O)[C@@H](NC(=O)c2cccc(C(F)(F)F)c2)[C@@H](c2ccc(F)cc2)c2c(C(=O)N3CCC[C@H]3C#N)nn(-c3cccc(OCCN4CC5(COC5)C4)c3)c21 [Compound I-342]
IC50 [1]: ≤ 100 nM | % Adduct Formation (DCN1 protein): +++ (MS Emax % adduct formation greater than 80.0 and less than or equal to 100.0) | IC50 [2, 3]: ≤ 200 nM | IC50 [2, 4]: ≤ 200 nM
